# In patent US6426076B1 (PASCO Pharmazeutische Präparate GmbH, priority 1997, dated 2002):
# Legend:
# [1] = test system: skin metastases; assay: Case 1: vitamin C infusions in a patient with breast carcinoma, local recurrences and skin metastases; type: in vivo, human; conditions: vitamin C infusions of 7.5 g per infusion
# [2] = test system: metastatic breast cancer and massive bone metastases; assay: Case 2: vitamin C infusions in a patient with metastatic breast cancer and bone metastases, with concomitant chemotherapy; type: in vivo, human; conditions: ten infusions of 7.5 g vitamin C each
# [3] = test system: normal tissue (skin and bone marrow); assay: Adjuvant vitamin C infusions with radiation therapy: radiation tolerance of normal tissue; type: in vivo
# [4] = Combination therapy of cytostatics with vitamin C: loss of cytostatic effect; conditions: any of the cytostatics investigated
# Excerpt: The side effects of chemotherapy are also attributed to an increase in the levels of free radicals in many tissues.
# [5] = test system: terminal cancer patients; conditions: 100 terminal cancer patients, 10 g vitamin C orally each day; cited from earlier work
# [6] = test system: cancer patients; conditions: intravenous 0.5 to 10 g/day, then oral 10 to 30 g, cited from earlier work
# [7] = test system: tumor cell lines; conditions: in certain concentrations; cited from earlier work
# [8] = test system: normal cell lines; conditions: in the concentrations cytotoxic to tumor cell lines; cited from earlier work
# [9] = test system: cancer patients; conditions: high-dose vitamin C therapy, case reports; cited from earlier work
# [10] = Animal experiments: combination with adriamycin, survival time
# [11] = intravenous infusion of 7.5 g vitamin C before and after each radiation
structure (smiles),measurement,setting,value
"O=C1O[C@H]([C@@H](O)CO)C(O)=C1O [vitamin C, ascorbic acid]",comparison with local-acting cytostatic administered previously,[1],superior to the local-acting cytostatic administered previously
same,effect on skin metastases,[1],remission of the skin metastases
same,pain caused by the bone metastases,[2],great relief from the pain
same,blood picture (leukocytes and platelets),[2]; concomitant chemotherapy,definite improvement in the blood picture (stabilization of leukocytes and platelets)
same,radioprotective effect on bone marrow,[3]; [11],greatly improved
same,skin reactions accompanying radiation,[3]; [11],can be prevented
same,increase of radiation tolerance of normal tissue,"[3]; vitamin C infusions, without increasing the radiation dose required to remove the tumors",about 20%
same,loss of effect of the cytostatics,[4],no loss of effect
same,survival time versus control group,[5],longer than that of the control group
same,general well-being and Karnofsky scale,[6],improvement in general well-being and the Karnofsky scale
same,pain in skeletal metastasis,[6],relief from pain in cases of skeletal metastasis
same,protein tumor markers in the serum,[6],decline in protein tumor markers in the serum
same,malignant pleural effusions and pulmonary metastases,[6]; in favorable cases,absorption of malignant pleural effusions and a reduction in the size of pulmonary metastases
same,effect on tumor cell lines,[7],cytotoxic effect
same,growth of normal cell lines,[8],not influenced
same,general condition and remissions,[9],improvement in general condition and spontaneous remissions
same,survival time,[10],prolonged survival time
